Like-named read-outs stand apart in the source and are kept apart here.
What was measured:
[1] = tested on: anaesthetised dog; experiment: Haemodynamic study in the anaesthetised dog (vascular resistances), i.v.; assay type: in vivo
Protocol: A complete haemodynamic study was carried out on mongrel dogs weighing from 25 to 30 kg, which were anaesthetised with sodium pentobarbital 30 mg/kg i.v., intubated and ventilated and subjected to a thoracotomy at the 5th left intercostal space. The measurement of the […] is carried out using electromagnetic rings positioned at the level of the ascending aorta and the circumflex branch of the left coronary artery, respectively, and connected to GOULD SP 2202 electromagnetic flow meters. The aortic pressure is measured by a MILLAR probe introduced via the femoral artery.
The total peripheral vascular resistance values (TPR) and the mean coronary vascular resistance values (CVRM) are calculated by the ratio between the mean aortic pressure and the mean cardiac output and the mean coronary output, respectively. The products tested were injected via the femoral vein in a form dissolved in water or a suitable solvent.
The evolution of the vascular resistances, expressed as percentage variation with respect to the control values, is presented as a function of time in the following Table.

[2] = tested on: conscious renally hypertensive dog; experiment: Arterial pressure in the conscious renally hypertensive dog; assay type: in vivo; settings: gastric intubation, 0.1 mg/kg
Protocol: Mongrel dogs weighing from 20 to 25 kg are used. A silastic catheter positioned under anaesthesia (sodium pentobarbital 30 mg/kg i.v.) at the level of the abdominal aorta and left over a prolonged period permits the later measurement of the arterial pressure in the conscious animals. Arterial hypertension is induced by a second intervention under anaesthesia consisting in a constriction of the left renal artery using a clip, which reduces its rate of flow by approximately 70%, the left kidney is enveloped in a latex capsule and the contralateral kidney is left in place.
The systolic and diastolic arterial pressures (PAS and PAD) are measured using a STATHAM P23 pressure sensor connected to the silastic catheter and linked to a GOULD pressure amplifier. The products are tested on the animals, which have become hypertensive, in the conscious state, at least one week after the second intervention. The arterial pressure is monitored continuously on an ES1000 GOULD recorder until 7 hours have elapsed after the treatment and then until 24 hours have elapsed.
The products to be tested are administered via the digestive system, after gastric intubation, in a form dissolved in water or a suitable solvent. The doses administered are expressed in mg of base with respect to body weight.
The representative products of the invention were compared with the reference product (CROMAKALIM). The variations in the systolic and diastolic arterial pressures (PAS and PAD), presented at the most significant times after treatment, are expressed as percentage variation with respect to the control values.

[3] = tested on: aorta of the rat; experiment: Relaxation of rat aortic rings contracted by potassium depolarisation (KCl); assay type: cell-based; settings: Rattus norvegicus, rat aorta rings without endothelium
Protocol: Male Wistar rats (325-375 g) are anaesthetised i.p. using sodium pentobarbital (30 mg/kg). The thoracic aorta and the mesenteric portal vein are removed. The aorta is dissected into rings 3 mm long and the endothelium is removed mechanically.
The organs are placed in a 20 ml thermostatically controlled vessel containing a physiological solution composed of (mM): NaCl 112; KCl 5; KH2 PO4 1; MgSO4 1.2; CaCl2 2.5; NaHCO3 25; glucose 11.5; EDTA 0.1; pH: 7.4; 37° C.; 95% O2 +5% CO2.
The initial force applied is 2 g in the case of the aorta and 0.5 g in the case of the portal vein. The variations in force are measured by a STATHAM sensor connected to a transducer amplifier (GOULD) and are monitored continuously on a GOULD 2400 graphic recorder.
The experimental protocols are as follows: After a stabilisation period of 90 minutes, the aortic rings are subjected to various tests:
potassium depolarisation:
The preparations are exposed to a 30 mM or 80 mM KCl (and 87 and 37 mM NaCl, respectively) hyperpotassium medium; after 30 minutes' stabilisation of contraction, cumulative concentrations of the product to be tested are added every 15 minutes. The relaxation values obtained allow the IC50 s to be calculated.
The products are used in a form dissolved in water or a suitable solvent.
The concentrations expressed refer to the final concentrations in terms of base in the isolated organ baths.

[4] = tested on: spontaneously hypertensive rat (SHR); experiment: Arterial pressure in the conscious spontaneously hypertensive rat (SHR), oral; assay type: in vivo
Protocol: The study is carried out on SHR male rats (Charles River) weighing from 260 g to 330 g and aged from 18 to 20 weeks. A polyethylene catheter is positioned at the level of the abdominal aorta and tunnelised at the level of the neck under anaesthesia (ketamine hydrochloride 150 mg/kg intraperitoneally). The animals, placed in movement-restraining cages, are tested in the conscious state at least 48 hours after intervention. The arterial pressure, measured by a STATHAM P23 pressure sensor connected to the abdominal catheter, is registered on a GOULD 2400 recorder. […] The doses administered are expressed in mg/kg of base.
The results obtained with a certain number of representative products of the invention and a reference product, CROMAKALIM, are grouped in the following Table. The variations in systolic and diastolic arterial pressure (PAS and PAD) presented at the most significant times after treatment are expressed as percentage variation with respect to the control values.

[5] = tested on: guinea pig; experiment: Bronchospasm produced by a histamine aerosol at 4%, compound i.v.; assay type: in vivo; settings: 0.35 mg/kg i.v.
Protocol: The bronchodilating activity has been studied in the guinea pig by the method of H. KONZETT and R. ROSSLER, Arch. Exp. Path. U. Pharm. 195, 71 (1940).
For example, the bronchospasm produced in the guinea pig by a histamine aerosol et 4% is inhibited of 96% by the compound of Example 1 B form, at the dose of 0.30 mg/kg i.v., and of 100% by the compound of Example 24 B form, at the dose of 0.35 mg/kg i.v.

Compound: COC[C@@H]1CCC(=O)N1C1c2cc(C#N)ccc2OC(C)(C)C1O (single isomer, unassigned) [Example 2 form A, 3S,4R- or 3R,4S-trans-2,2-dimethyl-3-hydroxy-4-(2-oxo-5S-methoxymethyl-1-pyrrolidinyl)-6-cyanochroman]
- Variation (%) of CVRM after treatment ([1]; 30 μg/kg, 1 min): -28.9%
- Variation (%) of TPR after treatment ([1]; 30 μg/kg, 1 min): -9.8%
- Variation (%) of CVRM after treatment ([1]; 30 μg/kg, 10 min): -20.2%
- Variation (%) of TPR after treatment ([1]; 30 μg/kg, 10 min): -11.8%
- Variation (%) of CVRM after treatment ([1]; 30 μg/kg, 30 min): -22.1%
- Variation (%) of TPR after treatment ([1]; 30 μg/kg, 30 min): -11.8%
- Variation (%) of CVRM after treatment ([1]; 100 μg/kg, 1 min): -54.7%
- Variation (%) of TPR after treatment ([1]; 100 μg/kg, 1 min): -15.8%
- Variation (%) of CVRM after treatment ([1]; 100 μg/kg, 10 min): -56.1%
- Variation (%) of TPR after treatment ([1]; 100 μg/kg, 10 min): -14.7%
- Variation (%) of CVRM after treatment ([1]; 100 μg/kg, 30 min): -50.5%
- Variation (%) of TPR after treatment ([1]; 100 μg/kg, 30 min): -12.6%
- Variation (%) of PAD after treatment ([2]; 1 H): -20%
- Variation (%) of PAS after treatment ([2]; 1 H): -12%
- Variation (%) of PAD after treatment ([2]; 3 H): -32%
- Variation (%) of PAS after treatment ([2]; 3 H): -28%
- Variation (%) of PAD after treatment ([2]; 7 H): -44%
- Variation (%) of PAS after treatment ([2]; 7 H): -41%
- Variation (%) of PAD after treatment ([2]; 24 H): 0%
- Variation (%) of PAS after treatment ([2]; 24 H): -2%
- Variation (%) of PAD after treatment ([2]; 30 min): -14%
- Variation (%) of PAS after treatment ([2]; 30 min): -2%
- IC50 ([3]; 30 mM KCl, read-out: IC50 (M) KCl 30 mM): 2.8e-07 M
- IC50 ([3]; 80 mM KCl, read-out: IC50 (M) KCl 80 mM): > 0.0001 M
- Variation (%) of PAD after treatment ([4]; 1.0 mg/kg, 1 H): -21 ± 4%
- Variation (%) of PAS after treatment ([4]; 1.0 mg/kg, 1 H): -16 ± 3%
- Variation (%) of PAD after treatment ([4]; 1.0 mg/kg, 3 H): -19 ± 3%
- Variation (%) of PAS after treatment ([4]; 1.0 mg/kg, 3 H): -12 ± 3%
- Variation (%) of PAD after treatment ([4]; 1.0 mg/kg, 6 H): -14 ± 2%
- Variation (%) of PAS after treatment ([4]; 1.0 mg/kg, 6 H): -9 ± 2%
- Variation (%) of PAD after treatment ([4]; 1.0 mg/kg, 30 min): -17 ± 3%
- Variation (%) of PAS after treatment ([4]; 1.0 mg/kg, 30 min): -11 ± 2%
- Variation (%) of PAD after treatment ([4]; 3.0 mg/kg, 1 H): -36 ± 3%
- Variation (%) of PAS after treatment ([4]; 3.0 mg/kg, 1 H): -26 ± 2%
- Variation (%) of PAD after treatment ([4]; 3.0 mg/kg, 3 H): -31 ± 3%
- Variation (%) of PAS after treatment ([4]; 3.0 mg/kg, 3 H): -25 ± 3%
- Variation (%) of PAD after treatment ([4]; 3.0 mg/kg, 6 H): -27 ± 3%
- Variation (%) of PAS after treatment ([4]; 3.0 mg/kg, 6 H): -21 ± 3%
- Variation (%) of PAD after treatment ([4]; 3.0 mg/kg, 30 min): -35 ± 3%
- Variation (%) of PAS after treatment ([4]; 3.0 mg/kg, 30 min): -24 ± 1%

Compound: CN(C)C[C@@H]1CCC(=O)N1C1c2cc(C#N)ccc2OC(C)(C)C1O (single isomer, unassigned) [Example 3 form A, 3R,4S- or 3S,4R-trans-2,2-dimethyl-3-hydroxy-4-(2-oxo-5S-dimethylaminomethyl-1-pyrrolidinyl)-6-cyanochroman]
- Variation (%) of CVRM after treatment ([1]; 3000 μg/kg, 1 min): +2.5%
- Variation (%) of TPR after treatment ([1]; 3000 μg/kg, 1 min): +1.7%
- Variation (%) of CVRM after treatment ([1]; 3000 μg/kg, 10 min): -38.5%
- Variation (%) of TPR after treatment ([1]; 3000 μg/kg, 10 min): -6.8%
- Variation (%) of CVRM after treatment ([1]; 3000 μg/kg, 30 min): -49.0%
- Variation (%) of TPR after treatment ([1]; 3000 μg/kg, 30 min): -8.5%

Compound: COC(=O)c1ccc2c(c1)C(N1C(=O)CCC1CO)C(O)C(C)(C)O2 (single isomer, unassigned) [Example 24 B form]
- Inhibition of the bronchospasm produced by a histamine aerosol at 4% [5]: 100%

Reference: US4999372A, “New aminochromanol compounds” (ADIR et Compagnie, priority 1988, dated 1991)
